Read-outs that look alike come from different tables or passages of the source.
Legend:
Type in all cases: in vivo
[1] = test system: sedge, umbrella (small-flower umbrella sedge, Cyperus difformis); experiment: Test B flooded paddy test; conditions: Cyperus difformis, 250 g ai/ha, Flood, read-out: Sedge, Umbrella plant response rating
How it was run: (§1)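 2-leaf plants; pots flooded 3 cm over soil; cpd added to paddy water; depth held; greenhouse 13–15 d; visual rating vs controls, 0 = no effect, 100 = complete control.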

rice (Oryra sativa) = experiment: Test B flooded paddy test; conditions: Oryza sativa, 250 g ai/ha, Flood, read-out: Rice plant response rating
How it was run: as §1

[2] = test system: ducksalad (Heteranthera limosa); experiment: Test B flooded paddy test; conditions: Heteranthera limosa, 250 g ai/ha, Flood, read-out: Ducksalad plant response rating
How it was run: as §1

[3] = test system: barnyardgrass (Echinochloa crus-galli); experiment: Test B flooded paddy test; conditions: Echinochloa crus-galli, 250 g ai/ha, Flood, read-out: Barnyardgrass plant response rating
How it was run: as §1

[4] = test system: blackgrass (Alopecurus myosuroides); experiment: Test A postemergence; conditions: Alopecurus myosuroides, post-emergence, 240 h, postemergence; for pest or weed control at 125 g/ha: 125 g ai/ha
How it was run: (§2)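 In a loam soil and sand blend, planted seeds got a preemergence directed soil spray, and young plants at the one- to two-leaf stage, 2–10 cm high, got a postemergence application; ~10 d greenhouse hold; injury rated visually, 0 = none, 100 = complete control.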

[5] = test system: ragweed (common ragweed, Ambrosia elatior); experiment: Test A postemergence; conditions: Ambrosia artemisiifolia, post-emergence, 240 h, postemergence; for pest or weed control at 125 g/ha: 125 g ai/ha
How it was run: as §2

[6] = test system: Galium (catchweed bedstraw, Galium aparine); experiment: Test A postemergence; conditions: Galium, post-emergence, 240 h, postemergence; for pest or weed control at 125 g/ha: 125 g ai/ha
How it was run: as §2

[7] = test system: pigweed (Amaranthus retroflexus); experiment: Test A postemergence; conditions: Amaranthus retroflexus, post-emergence, 240 h, postemergence; for pest or weed control at 125 g/ha: 125 g ai/ha
How it was run: as §2

Kochia (Kochia scoparia) = experiment: Test A postemergence; conditions: Bassia scoparia, post-emergence, 240 h, postemergence; for pest or weed control at 125 g/ha: 125 g ai/ha
How it was run: as §2

[8] = test system: ryegrass, Italian (Italian ryegrass, Lolium multiflorum); experiment: Test A postemergence; conditions: Lolium multiflorum, post-emergence, 240 h, postemergence; for pest or weed control at 125 g/ha: 125 g ai/ha
How it was run: as §2

[9] = test system: barnyardgrass (Echinochloa crus-galli); experiment: Test A postemergence; conditions: Echinochloa crus-galli, post-emergence, 240 h, postemergence; for pest or weed control at 125 g/ha: 125 g ai/ha
How it was run: as §2

[10] = test system: wheat (Triticum aestivum); experiment: Test A postemergence; conditions: Triticum aestivum, post-emergence, 240 h, postemergence; for plant injury at 125 g/ha: 125 g ai/ha
How it was run: as §2

corn (Zea mays) = experiment: Test A postemergence; conditions: Zea mays, post-emergence, 240 h, postemergence
How it was run: as §2

[11] = test system: giant foxtail (Setaria faberii); experiment: Test A postemergence; conditions: Setaria faberi, post-emergence, 240 h, postemergence; for pest or weed control at 125 g/ha: 125 g ai/ha
How it was run: as §2

[12] = 0 to 100 scale where 0 is no effect and 100 is complete control
[13] = scale of 0 to 100 where 0 is no effect and 100 is complete control

CN1C[C@H](c2csc3ccccc23)[C@@H](C(=O)Nc2ccccc2F)C1=O [Compound 1114]
pest or weed control at 250 g/ha [1, 12]: 0%
pest or weed control at 250 g/ha (rice (Oryra sativa); [12]): 0%
pest or weed control at 250 g/ha [2, 12]: 85%
pest or weed control at 250 g/ha [3, 12]: 45%
pest or weed control at 125 g/ha ([4]; visual injury on 0 to 100 scale (0 no effect, 100 complete control), approx. 10 d, read-out: Blackgrass plant response rating): 20%
pest or weed control at 500 g/ha ([4]; 500 g ai/ha, 0 to 100 scale, 0 is no effect, 100 is complete control, read-out: Blackgrass plant response rating): 60%
pest or weed control at 125 g/ha ([5]; visual injury on 0 to 100 scale (0 no effect, 100 complete control), approx. 10 d, read-out: Ragweed plant response rating): 0%
pest or weed control at 500 g/ha ([5]; 500 g ai/ha, 0 to 100 scale, 0 is no effect, 100 is complete control, read-out: Ragweed plant response rating): 0%
pest or weed control at 125 g/ha ([6]; visual injury on 0 to 100 scale (0 no effect, 100 complete control), approx. 10 d, read-out: Galium plant response rating): 0%
pest or weed control at 500 g/ha ([6]; 500 g ai/ha, 0 to 100 scale, 0 is no effect, 100 is complete control, read-out: Galium plant response rating): 20%
pest or weed control at 125 g/ha ([7]; visual injury on 0 to 100 scale (0 no effect, 100 complete control), approx. 10 d, read-out: Pigweed plant response rating): 0%
pest or weed control at 500 g/ha ([7]; 500 g ai/ha, 0 to 100 scale, 0 is no effect, 100 is complete control, read-out: Pigweed plant response rating): 0%
pest or weed control at 125 g/ha (Kochia (Kochia scoparia); visual injury on 0 to 100 scale (0 no effect, 100 complete control), approx. 10 d, read-out: Kochia plant response rating): 0%
pest or weed control at 500 g/ha (Kochia (Kochia scoparia); 500 g ai/ha, 0 to 100 scale, 0 is no effect, 100 is complete control, read-out: Kochia plant response rating): 20%
pest or weed control at 125 g/ha ([8]; visual injury on 0 to 100 scale (0 no effect, 100 complete control), approx. 10 d, read-out: Ryegrass, Italian plant response rating): 0%
pest or weed control at 500 g/ha ([8]; 500 g ai/ha, 0 to 100 scale, 0 is no effect, 100 is complete control, read-out: Ryegrass, Italian plant response rating): 40%
pest or weed control at 125 g/ha ([9]; visual injury on 0 to 100 scale (0 no effect, 100 complete control), approx. 10 d, read-out: Barnyardgrass plant response rating): 80%
pest or weed control at 500 g/ha ([9]; 500 g ai/ha, 0 to 100 scale, 0 is no effect, 100 is complete control, read-out: Barnyardgrass plant response rating): 90%
plant injury at 125 g/ha ([10]; visual injury on 0 to 100 scale (0 no effect, 100 complete control), approx. 10 d, read-out: Wheat plant response rating): 0%
plant injury at 500 g/ha ([10]; 500 g ai/ha, 0 to 100 scale, 0 is no effect, 100 is complete control, read-out: Wheat plant response rating): 30%
plant injury at 125 g/ha (corn (Zea mays); 125 g ai/ha, visual injury on 0 to 100 scale (0 no effect, 100 complete control), approx. 10 d, read-out: Corn plant response rating): 0%
plant injury at 500 g/ha (corn (Zea mays); 500 g ai/ha, 0 to 100 scale, 0 is no effect, 100 is complete control, read-out: Corn plant response rating): 70%
pest or weed control at 125 g/ha ([11]; visual injury on 0 to 100 scale (0 no effect, 100 complete control), approx. 10 d, read-out: Foxtail, Giant plant response rating): 90%
pest or weed control at 500 g/ha ([11]; 500 g ai/ha, 0 to 100 scale, 0 is no effect, 100 is complete control, read-out: Foxtail, Giant plant response rating): 90%

Cc1ccc(NC(=O)[C@H]2C(=O)N(C)C[C@@H]2c2cc(F)cc(F)c2)c(F)c1F [Compound 771]
pest or weed control at 250 g/ha [1, 13]: 0%
pest or weed control at 250 g/ha (rice (Oryra sativa); [13]): 20%
pest or weed control at 250 g/ha [2, 13]: 100%
pest or weed control at 250 g/ha [3, 13]: 90%
pest or weed control at 125 g/ha ([4]; visual injury after approximately 10 d, 0 to 100 scale (0 no effect, 100 complete control), read-out: Plant response rating, Blackgrass): 70%
pest or weed control at 125 g/ha ([5]; visual injury after approximately 10 d, 0 to 100 scale (0 no effect, 100 complete control), read-out: Plant response rating, Ragweed): 20%
pest or weed control at 125 g/ha ([6]; visual injury after approximately 10 d, 0 to 100 scale (0 no effect, 100 complete control), read-out: Plant response rating, Galium): 50%
pest or weed control at 125 g/ha ([7]; visual injury after approximately 10 d, 0 to 100 scale (0 no effect, 100 complete control), read-out: Plant response rating, Pigweed): 0%
pest or weed control at 125 g/ha (Kochia (Kochia scoparia); visual injury after approximately 10 d, 0 to 100 scale (0 no effect, 100 complete control), read-out: Plant response rating, Kochia): 50%
pest or weed control at 125 g/ha ([8]; visual injury after approximately 10 d, 0 to 100 scale (0 no effect, 100 complete control), read-out: Plant response rating, Ryegrass, Italian): 20%
pest or weed control at 125 g/ha ([9]; visual injury after approximately 10 d, 0 to 100 scale (0 no effect, 100 complete control), read-out: Plant response rating, Barnyardgrass): 90%
plant injury at 125 g/ha ([10]; visual injury after approximately 10 d, 0 to 100 scale (0 no effect, 100 complete control), read-out: Plant response rating, Wheat): 30%
Corn plant response rating (crop injury, 0 = no effect, 100 = complete kill) at 125 g/ha (corn (Zea mays); 125 g ai/ha, visual injury after approximately 10 d, 0 to 100 scale (0 no effect, 100 complete control)): 40%
pest or weed control at 125 g/ha ([11]; visual injury after approximately 10 d, 0 to 100 scale (0 no effect, 100 complete control), read-out: Plant response rating, Foxtail, Giant): 90%

— US12077503B2, “Substituted cyclic amides and their use as herbicides” (FMC CORPORATION, priority 2015, dated 2024)
